According to US8541588B2, “Sulfonamide derivatives” (Pfizer Limited, priority 2009, dated 2013):

Molecular target: T1, Nav1.7 (or SCN9A) channel; HEK cells stably transfected with hSCN9A (Homo sapiens, UniProt Q15858)
T1 construct: expressed in transfected cells
Assay: Nav1.7 block, PatchXpress 7000 automated whole-cell voltage clamp, estimated IC50 (EIC50)
Type: cell-based
Conditions: PatchXpress platform; hSCN9A HEK cells held at V1/2 of inactivation; estimated IC50

T1 sequence (Q15858 whole entry): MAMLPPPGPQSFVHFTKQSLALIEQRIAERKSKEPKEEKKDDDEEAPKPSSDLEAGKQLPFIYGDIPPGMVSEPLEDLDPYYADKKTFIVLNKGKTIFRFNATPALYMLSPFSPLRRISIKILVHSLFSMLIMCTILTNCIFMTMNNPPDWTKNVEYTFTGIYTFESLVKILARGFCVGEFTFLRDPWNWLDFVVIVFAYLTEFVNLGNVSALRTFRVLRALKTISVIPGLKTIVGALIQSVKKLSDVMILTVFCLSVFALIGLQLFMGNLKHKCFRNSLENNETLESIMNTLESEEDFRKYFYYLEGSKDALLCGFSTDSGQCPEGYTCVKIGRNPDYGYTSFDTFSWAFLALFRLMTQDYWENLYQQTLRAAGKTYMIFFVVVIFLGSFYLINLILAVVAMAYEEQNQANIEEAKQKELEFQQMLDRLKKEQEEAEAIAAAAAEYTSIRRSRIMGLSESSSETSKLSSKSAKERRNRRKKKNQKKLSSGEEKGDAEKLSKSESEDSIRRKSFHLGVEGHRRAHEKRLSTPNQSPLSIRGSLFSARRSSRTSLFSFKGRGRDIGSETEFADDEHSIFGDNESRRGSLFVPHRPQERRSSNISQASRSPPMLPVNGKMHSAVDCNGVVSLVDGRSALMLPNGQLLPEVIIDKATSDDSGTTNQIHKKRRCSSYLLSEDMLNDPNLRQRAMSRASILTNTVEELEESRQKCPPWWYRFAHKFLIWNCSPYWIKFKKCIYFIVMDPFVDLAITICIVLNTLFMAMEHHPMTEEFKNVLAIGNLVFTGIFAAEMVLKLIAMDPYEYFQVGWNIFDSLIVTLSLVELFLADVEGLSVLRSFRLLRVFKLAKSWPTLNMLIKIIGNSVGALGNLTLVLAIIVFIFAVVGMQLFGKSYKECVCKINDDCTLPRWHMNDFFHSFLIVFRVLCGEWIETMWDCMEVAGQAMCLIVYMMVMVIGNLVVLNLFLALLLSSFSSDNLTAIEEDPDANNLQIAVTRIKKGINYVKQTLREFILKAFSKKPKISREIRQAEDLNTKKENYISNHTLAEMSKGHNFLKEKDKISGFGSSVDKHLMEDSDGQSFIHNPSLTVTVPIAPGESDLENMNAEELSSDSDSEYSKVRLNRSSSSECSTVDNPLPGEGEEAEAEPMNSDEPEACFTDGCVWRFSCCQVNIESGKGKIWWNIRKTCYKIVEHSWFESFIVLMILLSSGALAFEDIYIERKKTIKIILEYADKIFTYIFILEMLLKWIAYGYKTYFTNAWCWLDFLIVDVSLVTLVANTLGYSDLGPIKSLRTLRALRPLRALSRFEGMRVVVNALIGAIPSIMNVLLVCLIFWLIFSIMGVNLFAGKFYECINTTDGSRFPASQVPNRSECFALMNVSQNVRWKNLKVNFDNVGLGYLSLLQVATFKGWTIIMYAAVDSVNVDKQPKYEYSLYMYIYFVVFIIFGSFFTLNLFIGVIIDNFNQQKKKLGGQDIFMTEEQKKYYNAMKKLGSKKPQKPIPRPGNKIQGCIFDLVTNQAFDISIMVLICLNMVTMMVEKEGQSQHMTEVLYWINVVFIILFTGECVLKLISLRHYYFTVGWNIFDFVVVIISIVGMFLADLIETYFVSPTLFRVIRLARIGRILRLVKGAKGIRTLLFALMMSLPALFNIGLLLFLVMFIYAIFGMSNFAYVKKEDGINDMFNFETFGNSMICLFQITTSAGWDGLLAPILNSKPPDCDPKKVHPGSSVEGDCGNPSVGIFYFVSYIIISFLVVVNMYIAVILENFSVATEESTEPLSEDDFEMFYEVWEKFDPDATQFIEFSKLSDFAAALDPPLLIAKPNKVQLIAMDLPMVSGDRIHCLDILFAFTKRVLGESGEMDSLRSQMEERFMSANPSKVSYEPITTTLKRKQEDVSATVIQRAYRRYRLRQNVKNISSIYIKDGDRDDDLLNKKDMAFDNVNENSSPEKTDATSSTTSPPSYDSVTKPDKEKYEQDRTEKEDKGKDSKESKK

Row | SMILES | IC50
1 | CC(C)(C)n1ccc(-c2cc(F)ccc2Oc2ccc(S(=O)(=O)Nc3nccs3)c(F)c2)n1 [Example 212, 4-(2-(1-tert-butyl-1H-pyrazol-3-yl)-4-fluorophenoxy)-2-fluoro-N-(thiazol-2-yl)benzenesulfonamide] | 15400 nM
2 | O=S(=O)(Nc1nccs1)c1ccc(Oc2ccccc2-c2ccccn2)c(F)c1 [Example 131, 3-fluoro-4-(2-pyridin-2-ylphenoxy)-N-1,3-thiazol-2-ylbenzenesulfonamide] | 12100 nM
3 | Cc1ccc(Oc2ccc(S(=O)(=O)Nc3nccs3)cc2F)c(-c2[nH]ncc2C)c1 [Example 224, 3-fluoro-4-(4-methyl-2-(4-methyl-1H-pyrazol-5-yl)phenoxy)-N-(thiazol-2-yl)benzenesulfonamide] | 770 nM
4 | O=S(=O)(Nc1ncns1)c1ccc(Oc2ccccc2-c2ccccc2)cc1Cl [Example 263, 4-(biphenyl-2-yloxy)-2-chloro-N-1,2,4-thiadiazol-5-ylbenzenesulfonamide] | 1440 nM
5 | N#Cc1cc(S(=O)(=O)Nc2nccs2)ccc1Oc1cc(C2CC2)nn1CC(F)(F)F [Example 194, 3-Cyano-4-[5-cyclopropyl-2-(2,2,2-trifluoro-ethyl)-2H-pyrazol-3-yloxy]-N-thiazol-2-yl-benzenesulfonamide] | 36800 nM
6 | O=S(=O)(Nc1ncns1)c1ccc(Oc2ccc(CC3CC3)cc2)c(Cl)c1 [Example 148, 3-chloro-4-[4-(cyclopropylmethyl)phenoxy]-N-1,2,4-thiadiazol-5-ylbenzenesulfonamide] | 2530 nM

Second part, the molecule after the results:

Row | IC50 | SMILES
7 | >300 nM | N#Cc1cc(S(=O)(=O)Nc2ncns2)ccc1Oc1cc(C(F)(F)F)nn1Cc1ccccc1 [Example 80, 4-{[1-benzyl-3-(trifluoromethyl)-1H-pyrazol-5-yl]oxy}-3-cyano-N-1,2,4-thiadiazol-5-ylbenzenesulfonamide]
8 | 33700 nM | Cc1snnc1NS(=O)(=O)c1ccc(Oc2ccccc2-c2ccccc2)c(C#N)c1 [Example 112, 4-(biphenyl-2-yloxy)-3-cyano-N-(5-methyl-1,2,3-thiadiazol-4-yl)benzenesulfonamide]
9 | 1430 nM | Cn1ccc(-c2c(F)cccc2Oc2ccc(S(=O)(=O)Nc3ncns3)cc2C#N)n1 [Example 85, 3-Cyano-4-[3-fluoro-2-(1-methyl-1H-pyrazol-3-yl)-phenoxy]-N-[1,2,4]thiadiazol-5-yl-benzene-sulfonamide]
10 | 12700 nM | Cc1cccc(-c2ccc(F)cc2F)c1Oc1ccc(S(=O)(=O)Nc2ncns2)cc1C#N [Example 35, 3-cyano-4-[(2′,4′-difluoro-3-methylbiphenyl-2-yl)oxy]-N-1,2,4-thiadiazol-5-ylbenzenesulfonamide]

Same assay, conditions: estimated IC50; hSCN9A HEK cells, PatchXpress platform; Examples 283-814

Row | SMILES | IC50
11 | Nc1n[nH]cc1-c1cc(Cl)ccc1Oc1cc(F)c(S(=O)(=O)Nc2ncns2)cc1F [Example 742, 4-[2-(3-amino-1H-pyrazol-4-yl)-4-chlorophenoxy]-2,5-difluoro-N-1,2,4-thiadiazol-5-ylbenzenesulfonamide] | 3.6 nM
12 | O=S(=O)(Nc1cscn1)c1ccc(Oc2ccc(Cl)cc2-c2cn[nH]c2)c(F)c1 [Example 611, 4-[4-chloro-2-(1H-pyrazol-4-yl)phenoxy]-3-fluoro-N-1,3-thiazol-4-ylbenzenesulfonamide] | 520 nM
13 | N#Cc1ccc(Oc2cc(F)c(S(=O)(=O)Nc3ncc(Cl)s3)cc2F)c(-c2cn[nH]c2)c1 [Example 771, N-(5-chloro-1,3-thiazol-2-yl)-4-[4-cyano-2-(1H-pyrazol-4-yl)phenoxy]-2,5-difluorobenzenesulfonamide] | 240 nM
14 | N#Cc1cc(S(=O)(=O)Nc2nccs2)ccc1Oc1cnn(-c2cccc(C(F)(F)F)c2)c1 [Example 334, 3-cyano-N-1,3-thiazol-2-yl-4-({1-[3-(trifluoromethyl)phenyl]-1H-pyrazol-4-yl}oxy)benzenesulfonamide] | 3400 nM
15 | O=S(=O)(Nc1ncns1)c1cc(F)c(Oc2ccc(F)cc2-c2cn[nH]c2)cc1F [Example 756, 2,5-difluoro-4-[4-fluoro-2-(1H-pyrazol-4-yl)phenoxy]-N-1,2,4-thiadiazol-5-ylbenzenesulfonamide] | 11 nM
16 | N#Cc1cc(S(=O)(=O)Nc2ccc(F)cn2)ccc1Oc1ccc(C(F)(F)F)cc1-c1cn[nH]c1 [Example 315, 3-cyano-N-(5-fluoropyridin-2-yl)-4-[2-(1H-pyrazol-4-yl)-4-(trifluoromethyl)phenoxy]benzenesulfonamide] | 1200 nM
17 | Nc1cc(-c2cc(Cl)ccc2Oc2cc(F)c(S(=O)(=O)Nc3ncns3)cc2F)ccn1 [Example 787, 4-[2-(2-aminopyridin-4-yl)-4-chlorophenoxy]-2,5-difluoro-N-1,2,4-thiadiazol-5-ylbenzenesulfonamide] | 7.2 nM
18 | N#Cc1cc(S(=O)(=O)Nc2ncc(Br)s2)ccc1Oc1c(Br)cc(Br)cc1-c1ccccc1 [Example 512, N-(5-Bromo-1,3-thiazol-2-yl)-3-cyano-4-[(3,5-dibromobiphenyl-2-yl)oxy]benzenesulfonamide] | 3400 nM
19 | Nc1cc(-c2cc(OC(F)(F)F)ccc2Oc2cc(F)c(S(=O)(=O)Nc3ncns3)cc2Cl)ccn1 [Example 553, 4-[2-(2-aminopyridin-4-yl)-4-(trifluoromethoxy)phenoxy]-5-chloro-2-fluoro-N-1,2,4-thiadiazol-5-ylbenzenesulfonamide] | 1.7 nM

Second part, the molecule after the results:

Row | IC50 | SMILES
20 | 31 nM | N#Cc1cccc(-c2cc(C(F)(F)F)ccc2Oc2ccc(S(=O)(=O)Nc3ncns3)cc2C#N)c1 [Example 509, 3-cyano-4-{[3′-cyano-5-(trifluoromethyl)biphenyl-2-yl]oxy}-N-1,2,4-thiadiazol-5-ylbenzenesulfonamide]
21 | 550 nM | N#Cc1cc(S(=O)(=O)Nc2nccs2)ccc1Oc1ccc(Cl)cc1-n1ccnn1 [Example 322, 4-[4-chloro-2-(1H-1,2,3-triazol-1-yl)phenoxy]-3-cyano-N-1,3-thiazol-2-ylbenzenesulfonamide]
22 | 480 nM | N#Cc1cc(S(=O)(=O)Nc2nccs2)ccc1Oc1ccc(Cl)cc1-c1cnn[nH]1 [Example 694, 4-[4-chloro-2-(1H-1,2,3-triazol-5-yl)phenoxy]-3-cyano-N-1,3-thiazol-2-ylbenzenesulfonamide]
23 | 190 nM | COc1cc(-c2ccccc2Oc2ccc(S(=O)(=O)Nc3nccs3)cc2C#N)ccc1C#N [Example 703]
24 | 1100 nM | Cc1nn(C)cc1-c1ccc(Oc2ccc(S(=O)(=O)Nc3nccs3)cc2C#N)cc1 [Example 389, 3-cyano-4-[4-(1,3-dimethyl-1H-pyrazol-4-yl)phenoxy]-N-1,3-thiazol-2-ylbenzenesulfonamide]
25 | 12000 nM | Cn1nccc1-c1cc(Cl)ccc1Oc1ccc(S(=O)(=O)Nc2ncsc2Cl)cc1C#N [Example 413, 4-[4-chloro-2-(1-methyl-1H-pyrazol-5-yl)phenoxy]-N-(5-chloro-1,3-thiazol-4-yl)-3-cyanobenzenesulfonamide]
26 | 140 nM | Cn1nc(C(F)(F)F)cc1-c1ccc(Oc2ccc(S(=O)(=O)Nc3ncc(F)s3)cc2C#N)cc1 [Example 387, 3-cyano-N-(5-fluoro-1,3-thiazol-2-yl)-4-{4-[1-methyl-3-(trifluoromethyl)-1H-pyrazol-5-yl]phenoxy}benzenesulfonamide]
27 | >1000 nM | N#Cc1cc(S(=O)(=O)Nc2cscn2)ccc1Oc1ccc(Cl)cc1-c1ccn(C(F)(F)F)n1 [Example 398, 4-{4-chloro-2-[1-(trifluoromethyl)-1H-pyrazol-3-yl]phenoxy}-3-cyano-N-1,3-thiazol-4-ylbenzenesulfonamide]
28 | 2.7 nM | Nc1cc(-c2cc(F)ccc2Oc2cc(F)c(S(=O)(=O)Nc3ncns3)cc2Cl)ccn1 [Example 405, 4-[2-(2-aminopyridin-4-yl)-4-fluorophenoxy]-5-chloro-2-fluoro-N-1,2,4-thiadiazol-5-ylbenzenesulfonamide]
29 | 660 nM | CCc1cc(-n2ccc(C(F)(F)F)n2)ccc1Oc1ccc(S(=O)(=O)Nc2nccs2)cc1C#N [Example 490, 3-cyano-4-{2-ethyl-4-[3-(trifluoromethyl)-1H-pyrazol-1-yl]phenoxy}-N-1,3-thiazol-2-ylbenzenesulfonamide]

Same assay, conditions: estimated IC50; hSCN9A HEK cells, PatchXpress platform; Examples 815-1040

Row | SMILES | IC50
30 | O=S(=O)(Nc1ncns1)c1cc(Cl)c(Oc2ccc(OC(F)(F)F)cc2-c2ccnnc2)cc1F [Example 909, 5-chloro-2-fluoro-4-[2-pyridazin-4-yl-4-(trifluoromethoxy)phenoxy]-N-1,2,4-thiadiazol-5-ylbenzenesulfonamide] | 2.1 nM
31 | CCN1CC(n2nccc2-c2cc(Cl)ccc2Oc2cc(F)c(S(=O)(=O)Nc3ncns3)cc2F)C1 [Example 975, 4-{4-chloro-2-[1-(1-ethylazetidin-3-yl)-1H-pyrazol-5-yl]phenoxy}-2,5-difluoro-N-1,2,4-thiadiazol-5-ylbenzenesulfonamide] | 1.5 nM
32 | O=S(=O)(Nc1nncs1)c1cc(F)c(Oc2ccc(Cl)cc2-c2cc(N3CCOCC3)ncn2)cc1F [Example 873, 4-[4-chloro-2-(6-morpholin-4-ylpyrimidin-4-yl)phenoxy]-2,5-difluoro-N-1,3,4-thiadiazol-2-ylbenzenesulfonamide] | 3900 nM

Results, then the molecule that gave them:

Row | IC50 | SMILES
33 | 820 nM | N#Cc1cc(S(=O)(=O)Nc2ncns2)ccc1Oc1ccc(Cl)cc1-c1ccc(CC(=O)O)cc1 [Example 1001, (5′-chloro-2′-{2-cyano-4-[(1,2,4-thiadiazol-5-ylamino)sulfonyl]phenoxy}biphenyl-4-yl)acetic acid]
34 | 34 nM | O=S(=O)(Nc1ncns1)c1ccc(Oc2ccc(OC(F)(F)F)cc2-c2ccn[nH]2)c(F)c1 [Example 829, 3-fluoro-4-[2-(1H-pyrazol-5-yl)-4-(trifluoromethoxy)phenoxy]-N-1,2,4-thiadiazol-5-ylbenzenesulfonamide]
35 | 4.4 nM | N#Cc1cc(S(=O)(=O)Nc2ncns2)ccc1Oc1ccc(Cl)cc1-c1cccc(C(=O)NC2CC2)c1 [Example 864, 5′-chloro-2′-{2-cyano-4-[(1,2,4-thiadiazol-5-ylamino)sulfonyl]phenoxy}-N-cyclopropylbiphenyl-3-carboxamide]
36 | 11 nM | N#Cc1cc(S(=O)(=O)Nc2ncns2)ccc1Oc1cc(C(F)(F)F)c(F)cc1-c1ccnnc1 [Example 948, 3-cyano-4-[4-fluoro-2-pyridazin-4-yl-5-(trifluoromethyl)phenoxy]-N-1,2,4-thiadiazol-5-ylbenzenesulfonamide]
